Assay results as given in US20250072423A1, “THIOPHENE ACETIC ACID FOR PLANT GROWTH REGULATION” (priority 2023, published 2025).

Tests used:
[1] = test system: auxin-response promoter DR5
Protocol: Artificial auxin-response promoter DR5 that contains a minimal 35S promoter fused to 9 repeats of an AuxRE with strict auxin specificity and responsive to only active auxins is used to indirectly visualize auxin in plants.
To further analyze the ability of TAA to induce an auxin response in tobacco, seedlings from transgenic tobacco plants expressing reporter gene RFP (red fluorescent protein gene) under the control of DR5 promoter were treated with different concentrations of TAA and compared the pattern of RFP fluorescence to that generated by equimolar concentration of other reported auxins over time.
Induction of an auxin response by TAA was analyzed by detecting the expression of fluorescent reporter gene under the control of auxin response elements (AuxRE) in transgenic tobacco. Plant transformation vector DR5rev::erRFP carrying DsRED reporter gene under an auxin-responsive promoter was obtained from addgene (www.addgene.org, plasmid ID. 61011). The plasmid was introduced into the Agrobacterium strain LBA4404, using freeze-thaw transformation. Transgenic plants were selected on a medium containing 25 mg/L hygromycin and then verified by PCR (polymerase chain reaction). The rooted plants were grown in soil and PCR positive tobacco seedlings were used in further experiments.

WT Arabidopsis seedlings [2] = assay: Root growth of WT Arabidopsis seedlings (Experiment 6); type: in vivo, A. thaliana
Protocol: (§1) Arabidopsis Columbia-0 wild type (WT) was used for assessing the effect of TAA on root growth and its effects on the expression of auxin-responsive genes. Seeds of A. thaliana were surface sterilized by suspending in 70% ethanol for 1 minute, followed by treatment with 10% bleach for 20 minutes. After thorough washing with sterile distilled water, the sterilized seeds were plated onto germination medium (half-strength Murashige and Skoog basal medium with vitamins (1/2 MS) medium supplemented with 1% sucrose and 0.7% plant agar) for germination. Germination was initiated by incubating the seeds in darkness at 5° C. for 2 days, followed by transfer to a light environment at 22° C. with a photoperiod of 16-h light/8-h dark for further growth. Stock solutions of TAA were prepared in DMSO (dimethyl sulfoxide). In control treatments, DMSO was used in equal amounts as present in the greatest concentration of TAA tested.
To analyze the effect of TAA on root growth, WT Arabidopsis seedlings were germinated as described and uniform-looking 8-day-old seedlings were transferred to germination medium supplemented with different concentrations of TAA (0.1, 1, 2, 5, 10, 25, 50, and 100 μM) or NAA/IAA/IBA (0.05, 0.1, 1, 2 and 5 μM). For IBA, two additional concentrations (10 and 25 μM) were also analyzed. Seedlings grown on media supplemented with an equal volume of DMSO were used as control. The seedlings were allowed to grow for 6 days and the plates were photographed at 24 h intervals. Primary root length was measured using Image J software. The difference in the number of lateral roots (LR) and root hairs was visually observed. Microscopic images were taken on a Leica Thunder Imager System (Leica Microsystems Ltd., Switzerland) and the images were processed with LAS X software.

WT Arabidopsis seedlings [3] = assay: Root growth of WT Arabidopsis seedlings in the presence of NPA (Experiment 7); type: in vivo, A. thaliana; settings: 5 μM TAA added, all NPA concentrations analyzed (0.5-8 μM)
Protocol: as §1
To analyze the effect of TAA on root growth in the presence of NPA (N-1-naphthylphthalamic acid), WT Arabidopsis seedlings were germinated as described and uniform-looking 8-day-old seedlings were transferred to germination medium supplemented with different concentrations of TAA (5 and 10 μM) and different concentrations of NPA (0, 0.5, 1, 2, 4, and 8 μM). The seedlings were allowed to grow for 6 days and the plates were photographed at 24 h intervals. […]

AtPIN1 (AT1G73590) = assay: qRT-PCR of early auxin-responsive gene AtPIN1 (Experiment 9); type: in vivo, A. thaliana; settings: 10 μM TAA, after 6 hours
Protocol: (§2) To analyze TAA responsive genes in Arabidopsis, WT Arabidopsis seeds were germinated as described and 14-day-old uniform-looking seedlings were initially acclimatized in liquid germination medium for 2 hours before transferring to medium containing different concentrations of TAA (5 and 10 μM). Seedlings in media supplemented with DMSO were used as control. Five random seedlings were selected and considered as one sample and three samples from both control and treatments were flash frozen in liquid nitrogen and total RNA was isolated using a TRIzol reagent (ThermoFisher Scientific, Cat #15596026).
(§3) Expression levels of seven previously reported early auxin-responsive genes were verified by qRT-PCR (quantitative reverse transcription polymerase chain reaction). RNA reverse transcription was performed using QuantiTect Reverse Transcription Kit (Qiagen). Three biological replicates and three technical replicates were used for all qRT-PCRs. Arabidopsis actin gene (AT3G18780) was used as internal reference.

AtIAA19 (AT3G15540) = assay: qRT-PCR of early auxin-responsive gene AtIAA19 (Experiment 9); type: in vivo, A. thaliana; settings: 5 and 10 μM TAA
Protocol: as §2, §3

AtARF19, AT1G19220 = assay: qRT-PCR of early auxin-responsive gene AtARF19 (Experiment 9); type: in vivo, A. thaliana; settings: 5 and 10 μM TAA, both time points
Protocol: as §2, §3

[4] = test system: tomato cotyledon explants; assay: Shoot regeneration from tomato cotyledon explants with 1 mg/L BAP (Experiment 3); type: cell-based, tomato cultivar Roma VF

O=C(O)Cc1ccsc1 [TAA]
RFP after short-term treatment and withdrawal ([1]; 48 h after TAA withdrawal): detectable in roots even after 48 h of TAA withdrawal | time to auxin reporter gene expression in primary root tips ([1]; all concentrations of TAA analyzed): ≤ 30 min | spread of RFP fluorescence ([1]; by 48 h of treatment): RFP signal was observable in secondary roots | RFP signal at the root tip with increasing TAA concentrations ([1]; dose dependence): gradually increased | length of the primary root relative to control (WT Arabidopsis seedlings [2]; 50 μM, after 6 days of treatment, 8-day-old seedlings): 50% | number and elongation of lateral roots (LR) (WT Arabidopsis seedlings [2]; higher concentrations (5 μM and above)): reduced the number of LR and inhibited the elongation of LR | effect on primary root length (WT Arabidopsis seedlings [2]; low concentration range (FIG. 8a)): promoter role | number of lateral roots (LR) (WT Arabidopsis seedlings [2]; lower concentrations of TAA): increased | number of root hairs (WT Arabidopsis seedlings [3]): increased the number of root hairs | AtPIN1 gene expression (AtPIN1 (AT1G73590)): nearly five-fold | AtIAA19 expression (AtIAA19 (AT3G15540)): induction | AtARF19 expression (AtARF19, AT1G19220): upregulation | number of shoots (shoot regeneration) ([4]; 10.0 mg/L with 1 mg/L BAP): maximum number of shoots | start of shoot formation ([4]; 0.05, 0.1, 0.5, 1.0, 2.0 and 10.0 mg/L with 1 mg/L BAP): ~14 days | shoot organogenesis ([4]; 0.05, 0.1, 0.5, 1.0, 2.0 and 10.0 mg/L with 1 mg/L BAP, by Day 28): many explants had well defined shoots
